We go through 1 compound from US20200360349A1, “ADMINISTRATION OF MONOBACTAM FOR THE TREATMENT OF URINARY TRACT INFECTION” (Novartis AG, priority 2017, published 2020).

Data set [1] can be described thus: Safety and tolerability of single doses of LYS228. The format is in vivo, human. The conditions noted are these: following single doses up to 6000 mg. From the text:
and including any ionic species thereof is a compound with antibacterial activity (See PCT Application No. PCT/US2015/022011, which is incorporated herein by reference). […] LYS228 kills bacteria by inhibiting cell wall synthesis through covalent modification of the active site serine of penicillin binding protein 3 (PBP3). Aztreonam is the only monobactam approved for clinical use (Tunkel and Scheld Infect Control Hosp Epidemiol p. 486-94, 1990). MBL-expressing Enterobacteriaceae can inactivate all classes of (3-lactam drugs, except monocyclic (3-lactams like the monobactams. MBLs are frequently co-expressed with SBLs. The prevalence of strains expressing the New Delhi metal-β-lactamase-1 (NDM-1) is as high as 12% in clinical isolates from patients with invasive infections in India (Biedenbach et al Antimicrob. Agents Chemother. p. 826-30, 2015, Rahman et al India. Int. J. Antimicrob. Agents p. 30-7, 2014); infections caused by strains expressing NDM-1 and other MBLs have been detected globally, including in Europe, the United States, China, and Japan (Kazmierczak et al Antimicrob. Agents Chemother. p. 1067-78, 2016). […]

The subject of data set [2] is Gram-negative bacteria, including strains that show resistance to other monobactams. As to conditions: cited from earlier work.

Consider `Nc1nc(/C(=N/OC2(C(=O)O)CC2)C(=O)N[C@@H]2C(=O)N(S(=O)(=O)O)[C@@H]2CN2CCOC2=O)cs1` [LYS228, 1-(((Z)-(1-(2-aminothiazol-4-yl)-2-oxo-2-(((3S,4R)-2-oxo-4-((2-oxooxazolidin-3-yl)methyl)-1-sulfoazetidin-3-yl)amino)ethylidene)amino)oxy)cyclopropanecarboxylic acid], for which the safety and tolerability result in data set [1] was “safe and well-tolerated”. The “activity against Gram-negative bacteria” value in data set [2] is “strong activity”.
